Reference: patent US11931324B2, “Pharmaceutical composition for prevention or treatment of osteoarthritis comprising obtusifolin, derivative thereof, or pharmaceutically acceptable salt thereof as active ingredient” (KOREA INSTITUTE OF SCIENCE AND TECHNOLOGY, priority 2021, dated 2024)

Columns and labels:
[1] = test system: matrix metalloproteinase 3 (MMP3); assay: MMP3 expression in IL-1β-treated chondrocytes (RT-PCR, qRT-PCR); type: cell-based, mouse
Procedure: (§1) Interleukin 1 beta (IL-1β) purchased from GenScript (Piscataway, NJ, USA) was dissolved in purified water. Obtusifolin and celecoxib were purchased from Sigma-Aldrich (St. Louis, MO, USA). Primary chondrocytes of the mice were cultured for 4 days under conditions of a temperature of about 37° C. and about 5% CO2. Afterwards, IL-1β (about 1 ng/mL) and either of obtusifolin or celecoxib were treated and cultured for about 24 hours. Then, the cultured chondrocytes were collected after about 5 days. To confirm the signal transduction pathway regulated by obtusifolin, the chondrocytes were pre-treated with obtusifolin or celecoxib and cultured for about 24 hours. […]
(§2) Chondrocyte RNAs were isolated using Trizol and chloroform. […] Transcription levels were quantified by qRT-PCR (ABI, Beverley, UK; StepOnePlus Real-Time PCR System). […]
(§3) In detail, chondrocytes treated with pro-inflammatory cytokine, IL-1β (about 1 ng/mL), for about 24 hours were treated with obtusifolin (about 0 μM to about 200 μM) or Celecoxib (about 50 μM). Then, in the resulting chondrocytes, the expression levels of matrix metalloproteinase 3 (MMP3), matrix metalloproteinase 13 (MMP13), and cyclooxygenase 2 (COX2) were measured by RT-PCR and qRT-PCR. In addition, the activity level of collagenase and the expression level of prostaglandin (PGE2) were measured. […]

[2] = test system: cyclooxygenase 2 (COX2); assay: COX2 expression in IL-1β-treated chondrocytes (RT-PCR, qRT-PCR); type: cell-based, mouse
Procedure: as §1, §2, §3

[3] = test system: primary chondrocytes; assay: lactate dehydrogenase (LDH) cytotoxicity assay; type: cell-based, mouse; details: 24 hours, concentration of about 200 μM or less (FIG. 1)
Procedure: (§4) Mouse chondrocytes isolated from femur and tibial plateau were obtained from ICR mice of 5-days old. Cells were cultured in Dulbecco's Modified Eagle's medium to which about 10% fetal bovine serum and about 1% penicillin/streptomycin, and then grown in an incubator under conditions maintained with about 5% CO2 and a temperature of about 37° C. C57BL/6 mice (male, 10-weeks old, weighing about 18 g to 20 g, and n=5) were purchased from DBL (Chungcheongbuk-do, South Korea). The C57BL/6 mice were housed at a temperature of about 23° C. and exposed to a light-dark cycle of about 12 hours. Food and water were provided regularly. All animal experiments were performed under the approval of the Ajou University Animal Care and Use Committee.
The primary chondrocytes were treated with obtusifolin (0 μM, about 25 μM, about 50 μM, about 100 μM, and about 200 μM) and cultured for about 24 hours. Then, the supernatant of the culture was collected and allowed for a reaction using a LDH-cytotoxicity assay kit (K311-400; BioVision). According to the recommendations provided by the kit manufacturer, values were measured.
In this experimental example, cytotoxicity of obtusifolin was measured using a lactate dehydrogenase-assay to determine whether obtusifolin affected chondrocytes. Detailed experimental methods were described in Reference Example.

[4] = test system: matrix metalloproteinase 13 (MMP13); assay: MMP13 expression in IL-1β-treated chondrocytes (RT-PCR, qRT-PCR); type: cell-based, mouse
Procedure: as §1, §2, §3

[5] = test system: p65; assay: p65 phosphorylation (NF-κB signal transduction) in IL-1β-treated chondrocytes, Western blotting and densitometry; type: cell-based, mouse
Procedure: as §1, §2
Here, as a loading control group, Erk1/2 was used. Band intensity was quantified by densitometry (AlphaEase FC 4.0; Alpha Innotech).
In detail, the chondrocytes treated with the pro-inflammatory cytokine, IL-1β (about 1 ng/mL), were collected, and the phosphorylation levels of p38, JNK, and p65 were measured through Western blotting. […] The chondrocytes were collected after the culture, and the phosphorylation level of p65 was measured through Western blotting and densitometry. […]

[6] = test system: mice that have undergone DMM surgery; assay: cartilage destruction induced by DMM surgery, mouse model, oral administration; type: in vivo
Procedure: as §4
According to a known technique, destabilization of the medial meniscus (DMM) surgery was performed on a mouse of about 10 week old to induce OA. Here, a Sham-operated mouse was used as a control group. […]
A mouse cartilage sample obtained from the mouse undergoing the DMM surgery was fixed about 4% para-formaldehyde followed by dehydration for about 2 weeks in about 0.5 mol/L EDTA (pH 8.0), to decalcify. […] The cartilage destruction was measured by Safranin O staining and scored using an Osteoarthritis Research […] International (OARSI) grading system.
Data values were expressed as mean±SEM after repeated experiments. […] Histological data were quantified based on an ordinal grading system including OARSI grades, subchondral bone plate thickness scores, and osteophyte grades, using non-parametric statistical methods. […]
In detail, the DMM surgery or shame surgery was performed on mice, and after about 4 weeks of the surgery, obtusifolin (about 10 mg/kg, about 50 mg/kg, or about 100 mg/kg) was administered to each mouse every day for 6 weeks. […] The degree of cartilage destruction was analyzed by analyzing images obtained after the staining. In detail, the OARSI grades, the degree of osteophyte formation, and a thickness of the subchondral bone were measured. […]

[7] = test system: collagenase; assay: total collagenase activity of IL-1β-treated chondrocytes (EnzCheck Gelatinase/Collagenase Assay kit); type: cell-based, mouse
Procedure: (§5) PGE2 production was evaluated using a PGE2 Immunoassay Kit (R & D System, Minneapolis, Minnesota, USA). Primary articular chondrocytes of mouse were seeded in a 96-well plate (about 2×10^4 cells/well). The level of secreted PGE2 in the primary chondrocytes of mouse treated with obtusifolin and IL-1β (about 1 ng/mL) was measured from the […]. By using an EnzCheck Gelatinase/Collagenase Assay kit (Molecular Probes, Carlsbad, CA, USA), total collagenase activity of the articular chondrocytes cultured in a medium conditioned with obtusifolin and IL-1β (about 1 ng/mL) was measured. The collagenase activity was quantified using a VICTOR X3 microplate reader (PerkinElmer, Waltham, MA, USA) at Ex/Em=490/530 nm according to the protocol provided by the manufacturer. […] After culturing the transfected cells in a complete medium for about 24 hours, luciferase activity was evaluated using an analysis kit (Promega, Madison, WI, USA), and the evaluated activity was normalized by β-galactosidase.
as §3, with “qRT-PCR.” for “qRT-PCR. In addition, the activity level of collagenase and the expression level of prostaglandin (PGE2) were measured.”

[8] = test system: prostaglandin E2 (PGE2); assay: PGE2 production in IL-1β-treated chondrocytes (PGE2 Immunoassay Kit); type: cell-based, mouse
Procedure: as §5
as §3, with “qRT-PCR.” for “qRT-PCR. In addition, the activity level of collagenase and the expression level of prostaglandin (PGE2) were measured.”

[9] = chondrocytes treated with IL-1β (about 1 ng/mL), obtusifolin about 0 μM to about 200 μM (FIGS. 2A, 2B)
[10] = obtusifolin about 100 μM to about 200 μM vs Celecoxib about 50 μM
[11] = chondrocytes treated with IL-1β (about 1 ng/mL), obtusifolin about 0 μM to about 200 μM (FIG. 2C)

COc1c(O)c(C)cc2c1C(=O)c1c(O)cccc1C2=O [obtusifolin]
expression level of MMP3 [1, 9]: decreased in a dose-dependent manner | effect of reducing expression of MMP3 compared with Celecoxib [1, 10]: the same or similar level of effects as Celecoxib | expression level of COX2 [2, 9]: decreased in a dose-dependent manner | effect of reducing expression of COX2 compared with Celecoxib [2, 10]: the same or similar level of effects as Celecoxib | cytotoxicity [3]: did not exhibit cytotoxicity | expression of MMP13 [4, 9]: decreased again | effect of reducing expression of MMP13 compared with Celecoxib [4, 10]: the same or similar level of effects as Celecoxib | inhibition of phosphorylation of P65 compared with Celecoxib [5, 10]: the same or similar level to that of Celecoxib | phosphorylation of P65 ([5]; pre-treated 24 hours with obtusifolin about 0 μM to 200 μM, then IL-1β (about 1 ng/mL) 10 minutes, as concentration increased (FIGS. 3B, 3C)): the phosphorylation of P65 was inhibited | formation of osteophytes ([6]; DMM surgery mice, oral about 10, 50 or 100 mg/kg every day for 6 weeks (FIG. 5C)): reduced in a dose-dependent manner | degree of cartilage destruction (Safranin O staining) ([6]; DMM surgery mice, oral about 10, 50 or 100 mg/kg every day for 6 weeks from 4 weeks after surgery (FIG. 5A)): decreased in a dose-dependent manner | effects according to the dose concentration in sham surgery mice ([6]; sham surgery mice, oral about 10, 50 or 100 mg/kg every day for 6 weeks (FIGS. 5A to 5D)): no difference in the effects | activity of collagenase [7, 11]: decreased in a dose-dependent manner | effect of reducing activity of collagenase compared with Celecoxib [7, 10]: the same or similar level of effects as Celecoxib | expression of PGE2 [8, 11]: decreased in a dose-dependent manner | effect of reducing expression of PGE2 compared with Celecoxib [8, 10]: the same or similar level of effects as Celecoxib
